Data set [1] relates to MIA PaCa-2. As to the kind of experiment: Antiproliferative activity against human MIAPaCa2 cells harboring KRAS G12C point mutant assessed as cell growth inhibition after 72 hrs by Celltiter-Glo luminescent cell viability assay. The format is functional, cell-based. The note with it: MIA PaCa-2, 72 h.
The nature of data set [2]: Volume of distribution at steady state in BALB/c mouse at 1 mg/kg, iv or 10 mg/kg, po. Type of data set: ADME, organism-based. The note with it: in vivo, read-out: Vdss.
Data set [3] relates to A549. As to the kind of experiment: Antiproliferative activity against human A549 cells harboring KRAS G12S point mutant assessed as cell growth inhibition after 72 hrs by Celltiter-Glo luminescent cell viability assay. Type of data set: functional, cell-based. The following applies: A549, 72 h.
Data set [4] in a line: Clearance in BALB/c mouse at 1 mg/kg, iv or 10 mg/kg, po. Type of data set: ADME, organism-based. The note with it: in vivo.
Data set [5] is described as follows: Solubility of compound in FaSSIF incubated for 48 to 72 hrs under shaking conditions by LCMS analysis. The format is physicochemical.
Data set [6] can be described thus: Intrinsic clearance in human cryopreserved hepatocytes assessed per 10^6 cells at 0.5 uM measured upto 60 mins by LCMS analysis. The note with it: read-out: CLH. The format is ADME, cell-based, Hepatocyte.
A short description of data set [7]: Oral bioavailability in BALB/c mouse at 10 mg/kg. Type of data set: ADME, organism-based. The note with it: in vivo.
Data set [8] can be described thus: Solubility of compound in 0.01N HCl at pH 2 incubated for 48 to 72 hrs under shaking conditions by LCMS analysis. The format is physicochemical.
A short description of data set [9]: Solubility of compound in PBS buffer at pH 7.4 incubated for 48 to 72 hrs under shaking conditions by LCMS analysis. The format is physicochemical.
A short description of data set [10]: Half life in BALB/c mouse at 1 mg/kg, iv or 10 mg/kg, po. The note with it: in vivo. The format is ADME, organism-based.
Data set [11] in a line: Permeability of compound across apical to basolateral membrane in MDCK2 cells at 10 to 50 uM incubated for 2 hrs under shaking condition by LC-MS/MS analysis. The following applies: dog, MDCK; read-out: permeability. The format is ADME, cell-based, Canis lupus familiaris, MDCK-II.
Data set [12] in a line: Intrinsic clearance in mouse cryopreserved hepatocytes assessed per 10^6 cells at 0.5 uM measured upto 60 mins by LCMS analysis. The following applies: read-out: CLH. The format is ADME, cell-based, Hepatocyte.

Values after ≈ are worked out from the molar mass of the structure shown.

In the case of `C=CC(=O)N1CCN(c2nc(=O)n(-c3c(C(C)C)ccnc3C)c3nc(-c4c(O)cccc4F)c(Cl)cc23)[C@@H](C)C1`, the IC50 in [1] turned out to be 3 nM; in data set [3], 32.4 µM. Besides, the Vd in data set [2] was 1.4 L/kg. The same molecule gave a clearance in data set [4] of 23.3 mL/min/kg. The thermodynamic solubility was found to be 435 µM (≈ 251 µg/mL) in data set [5], 534 µM (≈ 308 µg/mL) in [8] and 335 µM (≈ 193 µg/mL) in data set [9]. Also, the hepatocyte CLint at 0.5 µM in data set [6] was 5 µL/min/1e6 cells; in [12] it was 96 µL/min/1e6 cells. The molecule further registered a bioavailability in [7] below 0.5%. Besides, the half-life in data set [10] was 24 min. Further, the Papp A→B at 2 h, up to 50 µM in [11] was determined as 2 ×10⁻⁶ cm/s.
Turning to `C=CC(=O)N1CCN(c2nc(=O)n(-c3ccccc3C(C)C)c3nc(-c4c(O)cccc4F)c(Cl)cc23)CC1`, the results for the IC50 in data set [1] and in data set [3] were 11 nM and 11.5 µM, respectively. Besides, in data set [2], the Vd was found to be 0.5 L/kg. In addition, the clearance in data set [4] was 13.3 mL/min/kg. Also, the solubility (thermodynamic) in data set [5] was determined as 204 µM (≈ 112 µg/mL); in [8], 14 µM (≈ 7.67 µg/mL); in data set [9], 14 µM (≈ 7.67 µg/mL). Moreover, the hepatocyte CLint at 0.5 µM in [6] came to 32 µL/min/1e6 cells; in data set [12] it was 109 µL/min/1e6 cells. This molecule also came in with a bioavailability in data set [7] of 1.3%. In data set [10], this molecule showed a half-life of 90 min. Besides, the Papp A→B at 2 h, up to 50 µM in data set [11] is 6 ×10⁻⁶ cm/s.
Consider `C=CC(=O)N1CCN(c2nc(=O)n(-c3c(C(C)C)ccnc3C)c3nc(-c4c(O)cccc4F)c(F)cc23)[C@@H](C)C1`, for which the 50% inhibitory concentration (IC50) in data set [1] stood at 16 nM; in [3], 49.1 µM. The Vd in [2] was 1.1 L/kg. This molecule also gave a clearance in [4] of 61.7 mL/min/kg. In addition, the results for the thermodynamic solubility in [5], in data set [8] and in [9] were 477 µM (≈ 267 µg/mL), 484 µM (≈ 271 µg/mL) and 426 µM (≈ 239 µg/mL), respectively. The results for the hepatocyte CLint at 0.5 µM in [6] and in data set [12] were 9 µL/min/1e6 cells and 100 µL/min/1e6 cells, respectively. Besides, in data set [7], the bioavailability was found to be 15%. In data set [10], this molecule gave a half-life of 18 min. The Papp A→B at 2 h, up to 50 µM in data set [11] turned out to be 1 ×10⁻⁶ cm/s.
In the case of `C=CC(=O)N1CCN(c2nc(=O)n(-c3c(C)ccnc3C(C)C)c3nc(-c4c(O)cccc4F)c(Cl)cc23)[C@@H](C)C1`, the IC50 in data set [1] was found to be 1 nM; in data set [3] it was 34.1 µM. For the same molecule, in data set [2], the Vd is 0.8 L/kg. The molecule further had a clearance in [4] of 65 mL/min/kg. For the same molecule, the thermodynamic solubility came to 381 µM (≈ 220 µg/mL) in [5], 500 µM (≈ 289 µg/mL) in data set [8] and 46 µM (≈ 26.5 µg/mL) in [9]. Further, the hepatocyte CLint at 0.5 µM in data set [6] turned out to be 11 µL/min/1e6 cells; in data set [12] it was 75 µL/min/1e6 cells. In [7], this molecule yielded a bioavailability below 0.5%. The molecule also gave a half-life in data set [10] of 24 min. In addition, in data set [11], the Papp A→B at 2 h, up to 50 µM came to 1 ×10⁻⁶ cm/s.
Consider `C=CC(=O)N1CCN(c2nc(=O)n(-c3c(C)ncnc3C(C)C)c3nc(-c4c(O)cccc4F)c(Cl)cc23)[C@@H](C)C1`, for which the IC50 in data set [1] is 3 nM; in data set [3], above 50 µM. Further, the Vd in [2] came out at 0.4 L/kg. Also, in data set [4], the clearance was 58.3 mL/min/kg. The thermodynamic solubility is 500 µM (≈ 289 µg/mL) in [5], 421 µM (≈ 243 µg/mL) in data set [8] and 499 µM (≈ 288 µg/mL) in data set [9]. Moreover, the figures for the hepatocyte CLint at 0.5 µM in data set [6] and in [12] were 5 µL/min/1e6 cells and 139 µL/min/1e6 cells, respectively. Moreover, the bioavailability in data set [7] was below 0.5%. Also, the half-life in data set [10] is 18 min. In data set [11], the Papp A→B at 2 h, up to 50 µM was 1 ×10⁻⁶ cm/s.
As for `C=CC(=O)N1CCN(c2nc(=O)n(-c3ccccc3C(C)C)c3nc(-c4ccccc4O)c(Cl)cc23)[C@@H](C)C1`, the results for the IC50 in data set [1] and in [3] were 13 nM and 12.2 µM, respectively. Besides, in data set [2], the Vd was determined as 0.8 L/kg. This molecule had a clearance in data set [4] of 28.3 mL/min/kg. Also, the solubility (thermodynamic) in data set [5] stood at 299 µM (≈ 163 µg/mL); in data set [8] it was 57 µM (≈ 31 µg/mL); in data set [9] it was 88 µM (≈ 47.9 µg/mL). In addition, the hepatocyte CLint at 0.5 µM was determined as 82 µL/min/1e6 cells in [6] and 288 µL/min/1e6 cells in [12]. The bioavailability in data set [7] was determined as 10%. Further, the half-life in data set [10] was 30 min. For the same molecule, the Papp A→B at 2 h, up to 50 µM in data set [11] came to 18 ×10⁻⁶ cm/s.

For the origin of these results see ChEMBL document CHEMBL4354832, “Discovery of a Covalent Inhibitor of KRASG12C (AMG 510) for the Treatment of Solid Tumors” (J Med Chem, 2020).
